Drawing on patent US7847108B2, “Oxathiin carboxamides” (Bayer CropScience AG, priority 2003, dated 2010), this text covers logP and chromatographic logP for 72 molecules.

One series in a line: logP determination by HPLC on reversed-phase column (EEC Directive 79/831 Annex V.A8). The class given is physicochemical. To be noted: Table 1 logP / m.p., C18, 43° C., acidic range (pH 2.3). As to the method:
The given logP values were determined in accordance with EEC Directive 79/831 Annex V.A8 by HPLC (High Performance Liquid Chromatography) on a reversed-phase column (C 18). Temperature: 43° C. […] Calibration was carried out using unbranched alkan-2-ones (having 3 to 16 carbon atoms) with known logP values (determination of the logP values by the retention times using linear interpolation between two successive alkanones).
Molecule `CC(C)CC(C)c1ccccc1NC(=O)C1=C(C(F)(F)F)OCC(C)S1` (stereo not drawn) [Example 3] had a logP of 4.24.

Regarding `CC1COC(C(F)(F)F)=C(C(=O)Nc2ccccc2C(C)CC(C)(C)C)S1` (stereo not drawn) [Example 4], the logP was determined as 4.53. Still for that read-out and setting: the figure for `Cc1cc(-c2ccccc2NC(=O)C2=C(C(F)(F)F)OCC(C)S2)ccc1F` (stereo not drawn) [Example 5] is 3.98; for `CC1COC(C(F)(F)F)=C(C(=O)Nc2ccccc2-c2ccc(Cl)c(Cl)c2)S1` (stereo not drawn) [Example 6] it is 4.26. On the same count and under the same terms, the result for `CC1COC(C(F)(F)F)=C(C(=O)Nc2ccccc2-c2ccc(Cl)c(C(F)(F)F)c2)S1` (stereo not drawn) [Example 7] reads 4.30. Same read-out and setting: the figure for `CC(C)ON=Cc1ccc(-c2ccccc2NC(=O)C2=C(C(F)(F)F)OCC(C)S2)cc1` (stereo not drawn) [Example 8] is 4.57; for `CC1COC(C(F)(F)F)=C(C(=O)Nc2ccccc2-c2ccc(C(F)(F)F)cc2)S1` (stereo not drawn) [Example 9] it is 4.06. `CCCON=Cc1ccc(-c2ccccc2NC(=O)C2=C(C(F)(F)F)OCCS2)cc1F` [Example 25] showed a lipophilicity (logP) of 4.42.

`O=C(Nc1ccccc1C1CCCCC1)C1=C(C(F)(F)F)OCCS1` [Example 28] registered a log partition coefficient (logP) of 3.69.

The molecule `O=C(Nc1ccccc1-c1ccc(Cl)c(C(F)(F)F)c1)C1=C(C(F)(F)F)OCCS1` [Example 30] came in with a logP of 4.03. Molecule `CC(CC1CCCCC1)c1ccccc1NC(=O)C1=C(C(F)(F)F)OCCS1` (stereo not drawn) [Example 31] yielded a logP of 4.71. On the same count and under the same terms, the result for `O=C(Nc1ccccc1-c1cc(F)cc(F)c1)C1=C(C(F)(F)F)OCCS1` [Example 32] reads 3.35; that for `O=C(Nc1ccccc1-c1ccc(I)cc1)C1=C(C(F)(F)F)OCCS1` [Example 33], 3.85; that for `C=CCC(C)c1ccccc1NC(=O)C1=C(C(F)(F)F)OCCS1` (stereo not drawn) [Example 34], 3.33. The same measure, in the same setting: the figure for `Cc1ccc(-c2ccccc2NC(=O)C2=C(C(F)(F)F)OCCS2)cc1F` [Example 36] is 3.62; for `CCCC(C)c1ccccc1NC(=O)C1=C(C(F)(F)F)OCCS1` (stereo not drawn) [Example 39] it is 3.63; for `C#CCON=C(C)c1ccc(-c2ccccc2NC(=O)C2=C(C(F)(F)F)OCCS2)cc1` [Example 40] it is 3.76.

`CON=C(N)c1ccc(-c2ccccc2NC(=O)C2=C(C(F)(F)F)OCCS2)cc1` [Example 41] registered a lipophilicity (logP) of 1.96. Still for that read-out and setting: the figure for `CCCCCCCCC(C)c1ccccc1NC(=O)C1=C(C(F)(F)F)OCCS1` (stereo not drawn) [Example 42] is 5.48; for `O=C(Nc1ccccc1-c1cc(F)cc(Cl)c1)C1=C(C(F)(F)F)OCCS1` [Example 44] it is 3.60; for `CON=C(C)c1ccc(-c2ccccc2NC(=O)C2=C(C(F)(F)F)OCCS2)cc1Cl` [Example 45] it is 3.45. On the same count and under the same terms, the result for `CON=C(C)c1ccc(-c2ccccc2NC(=O)C2=C(C(F)(F)F)OCCS2)cc1F` [Example 46] reads 3.69; that for `CCCCCC(C)c1ccccc1NC(=O)C1=C(C(F)(F)F)OCCS1` (stereo not drawn) [Example 48], 4.34; that for `CC(c1ccccc1NC(=O)C1=C(C(F)(F)F)OCCS1)C1CCCCC1` (stereo not drawn) [Example 49], 4.31. As to `CC(C)CC(C)c1cc(F)ccc1NC(=O)C1=C(C(F)(F)F)OCCS1` (stereo not drawn) [Example 50], the logP is 3.94. Still for that read-out and setting: the result for `CCC(CC)c1ccccc1NC(=O)C1=C(C(F)(F)F)OCCS1` [Example 51] reads 3.62; that for `CCCC(C)c1cc(F)ccc1NC(=O)C1=C(C(F)(F)F)OCCS1` (stereo not drawn) [Example 52], 3.67.

The molecule `CCC(C)CC(C)c1ccccc1NC(=O)C1=C(C(F)(F)F)OCCS1` (stereo not drawn) [Example 54] gave a logP of 4.25. Consider `CC(CC1CC1(Cl)Cl)c1ccccc1NC(=O)C1=C(C(F)(F)F)OCCS1` (stereo not drawn) [Example 55], for which the logP was determined as 3.92. The same measure, in the same setting: the result for `CCC(C)(C)CC(C)c1ccccc1NC(=O)C1=C(C(F)(F)F)OCCS1` (stereo not drawn) [Example 58] reads 4.48; that for `CC1CSC(C(=O)Nc2ccccc2C2CC3CCC2C3)=C(C(F)(F)F)O1` (stereo not drawn) [Example 59], 5.36; that for `CC1CC(C)(C)c2cccc(NC(=O)C3=C(C(F)(F)F)OCCS3)c21` (stereo not drawn) [Example 60], 4.18. The same measure, in the same setting: the figure for `CC1CSC(C(=O)Nc2ccccc2-c2ccc(C(F)(F)F)cc2)=C(C(F)(F)F)O1` (stereo not drawn) [Example 61] is 4.08; for `CON=Cc1ccc(-c2ccccc2NC(=O)C2=C(C(F)(F)F)OC(C)CS2)cc1` (stereo not drawn) [Example 62] it is 3.81.

`CC(C)CC(C)c1ccccc1NC(=O)C1=C(C(F)(F)F)OC(C)CS1` (stereo not drawn) [Example 63]: the log partition coefficient (logP) is 4.27.

`CC(C)ON=Cc1ccc(-c2ccccc2NC(=O)C2=C(C(F)(F)F)OC(C)CS2)cc1` (stereo not drawn) [Example 64] had a logP of 4.56. Same read-out and setting: the figure for `CC1CSC(C(=O)Nc2ccccc2-c2ccc(Cl)c(Cl)c2)=C(C(F)(F)F)O1` (stereo not drawn) [Example 65] is 4.27; for `CC1CSC(C(=O)Nc2ccccc2C(C)CC(C)(C)C)=C(C(F)(F)F)O1` (stereo not drawn) [Example 66] it is 4.51; for `CC1CSC(C(=O)Nc2ccc(F)cc2-c2ccc(Cl)c(Cl)c2)=C(C(F)(F)F)O1` (stereo not drawn) [Example 67] it is 4.32. The same measure, in the same setting: the figure for `CCCON=Cc1ccc(-c2ccccc2NC(=O)C2=C(C(F)(F)F)OC(C)CS2)cc1F` (stereo not drawn) [Example 68] is 4.77. In turn, `Cc1ccc(-c2ccccc2NC(=O)C2=C(C(F)(F)F)OC(C)CS2)cc1F` (stereo not drawn) [Example 69] registered a lipophilicity (logP) of 3.99. As for `Cc1cc(-c2ccccc2NC(=O)C2=C(C(F)(F)F)OC(C)CS2)ccc1F` (stereo not drawn) [Example 70], the logP turned out to be 3.99. On the same count and under the same terms, the result for `CC1CSC(C(=O)Nc2ccccc2-c2ccc(C(F)(F)F)c(F)c2)=C(C(F)(F)F)O1` (stereo not drawn) [Example 71] reads 4.08. Take `O=C(Nc1ccc(F)cc1-c1cc(F)cc(F)c1)C1=C(C(F)(F)F)OCCS1` [Example 73]: the logP was 3.49. The same measure, in the same setting: the result for `O=C(Nc1c(F)cccc1-c1cc(F)cc(F)c1)C1=C(C(F)(F)F)OCCS1` [Example 74] reads 3.20. As for `O=C(Nc1cc(F)ccc1-c1cc(F)cc(F)c1)C1=C(C(F)(F)F)OCCS1` [Example 75], the log partition coefficient (logP) is given as 3.70. In the case of `CCCCCCc1ccccc1NC(=O)C1=C(C(F)(F)F)OCCS1` [Example 76], the logP worked out at 4.25. On the same count and under the same terms, the figure for `CCCC(CC)c1ccccc1NC(=O)C1=C(C(F)(F)F)OCCS1` (stereo not drawn) [Example 77] is 4.07; for `N#Cc1ccc(-c2ccccc2NC(=O)C2=C(C(F)(F)F)OCCS2)cc1` [Example 78] it is 2.87; for `O=C(Nc1ccccc1-c1ccc(Cl)c(Cl)c1)C1=C(C2CC2)OCCS1` [Example 80] it is 3.53. In turn, `CC(CC(C)(C)C)c1ccccc1NC(=O)C1=C(C(F)F)OCCS1` (stereo not drawn) [Example 81] yielded a logP of 4.29.

Molecule `CC1CC(C)(C)c2cccc(NC(=O)C3=C(C(F)F)OCCS3)c21` (stereo not drawn) [Example 83] gave a lipophilicity (logP) of 4.00. On the same count and under the same terms, the result for `O=C(Nc1ccccc1-c1ccc(Cl)c(Cl)c1)C1=C(C(F)F)OCCS1` [Example 84] reads 3.92. On the same count and under the same terms, the figure for `CCCON=Cc1ccc(-c2ccccc2NC(=O)C2=C(C(F)F)OCCS2)cc1F` [Example 85] is 4.52; for `CCCC(CC(C)C)c1ccccc1NC(=O)C1=C(C(F)(F)F)OCCS1` (stereo not drawn) [Example 87] it is 4.65; for `CCC(CC(C)C)c1ccccc1NC(=O)C1=C(C(F)(F)F)OCCS1` (stereo not drawn) [Example 88] it is 4.30. In turn, `CC(=CC(C)C)c1ccccc1NC(=O)C1=C(C(F)(F)F)OCCS1` [Example 89] showed a log partition coefficient (logP) of 4.32. On the same count and under the same terms, the figure for `CC(C)CC(C)c1ccccc1NC(=O)C1=C(C(F)(F)F)OCCS1(=O)=O` (stereo not drawn) [Example 90] is 3.53. Molecule `O=C(Nc1ccccc1-c1ccc(Br)cc1)C1=C(C(F)(F)F)OCCS1(=O)=O` [Example 91] came in with a lipophilicity (logP) of 3.35. On the same count and under the same terms, the result for `Cc1cc(Cl)ccc1-c1ccccc1NC(=O)C1=C(C(F)(F)F)OCCS1(=O)=O` [Example 92] reads 3.66. On to `O=C(Nc1ccccc1-c1ccc(Cl)c(Cl)c1)C1=C(C(F)(F)F)OCCS1(=O)=O` [Example 93], for which the logP turned out to be 3.57. The logP values of the last two molecules are within 0.2 log units of each other. Consider `CCC(C)C(C)c1ccccc1NC(=O)C1=C(C(F)(F)F)OCCS1` (stereo not drawn) [Example 94], for which the logP is listed as 3.88.

In the case of `O=C(Nc1ccccc1-c1ccc(Cl)c(F)c1)C1=C(C(F)(F)F)OCCS1(=O)=O` [Example 95], the logP was 3.28. As to `CC(CC1CC1)c1ccccc1NC(=O)C1=C(C(F)(F)F)OCCS1` (stereo not drawn) [Example 96], the log partition coefficient (logP) is on record as 3.72. Same read-out and setting: the result for `CC(C)(C)C#Cc1ccccc1NC(=O)C1=C(C(F)(F)F)OCCS1` [Example 97] reads 4.42; that for `Cc1cc(-c2ccccc2NC(=O)C2=C(C(F)(F)F)OCCS2)ccc1Br` [Example 98], 4.06; that for `CC(=O)N(C(=O)C1=C(C(F)(F)F)OCCS1)c1ccccc1C(C)CC(C)C` (stereo not drawn) [Example 99], 4.56.

For the molecule `CON=C(c1ccc(-c2ccccc2NC(=O)C2=C(C(F)(F)F)OCCS2)cc1)C(F)(F)F` [Example 100], the lipophilicity (logP) is given as 2.53. Still for that read-out and setting: the figure for `CC1(c2ccccc2NC(=O)C2=C(C(F)(F)F)OCCS2)CC1(Cl)Cl` (stereo not drawn) [Example 101] is 3.66; for `CC(C)CCc1ccccc1NC(=O)C1=C(C(F)(F)F)OCCS1` [Example 102] it is 3.72.

For the molecule `CC(C)(C)CCc1ccccc1NC(=O)C1=C(C(F)(F)F)OCCS1` [Example 103], the logP came to 3.98.

Still in this series, the particulars now being: reversed-phase C18 HPLC column, pH 2.3, C18, 43° C., read-out: logP (pH 2.3).
Turning to `CO/N=C/c1ccc(-c2ccccc2NC(=O)C2=C(C(F)(F)F)OCCS2)cc1` [Example 1, N-[4′-(methoxyiminomethyl)-biphenyl-2-yl]-6-trifluoromethyl-2,3-dihydro-1,4-oxathiin-5-carboxamide], the chromatographic logP was 3.51.
